Reference: paper PMC6271245, “Discovery of Gramine Derivatives That Inhibit the Early Stage of EV71 Replication in Vitro” (Molecules, 2014)
≈ marks a conversion by molar mass, not a printed value. Read-outs that look alike come from different tables or passages of the source.

Experiments:
Enterovirus 71 (EV71) = experiment: Inhibition of EV71-induced cytopathogenicity (CPE) in RD cells, MTT; assay type: cell-based; details: for EC50: Enterovirus A, read-out: EC50 (µg/mL) RD; for inhibition of virus-induced CPE (morphology): 10 µg/mL 4a, 20 µg/mL 4i, 40 µg/mL 4r or 4s, 48 h pi
Method: The antiviral activities of gramine and its derivatives against EV71 based on inhibition of virus-induced cytopathogenicity effects (CPEs) in African green monkey kidney cells (Vero) and rhabdomyosarcoma cells (RD) were examined. The cytotoxic effects were also evaluated. The inhibitory activities expressed as half maximal effective concentration (EC50) values and selectivity indexes (SI) for the target compounds are presented in Table 1, and the dose-dependent antiviral effects are shown in Figure 1A.
The activity of compounds against EV71 was determined based on the inhibition of virus-induced cytopathogenicity effects (CPEs) in acutely infected cells. Vero and RD cells grown to 90% confluency in 96-well dishes were washed with phosphate buffered saline (PBS) and infected with 100 TCID50 of EV71 mixed with serial dilutions of tested compounds for 1.5 h at 37 °C. The inoculum was aspirated and cells were incubated with DMEM and test compounds at 37 °C, 5% CO2 for 48 h. The CPEs were observed microscopically and the viability of the cells was determined with a 3-(4,5-dimethylthiazol-2-yl)-2,5-diphenyltetrazolium bromide (MTT) assay. The concentrations required for the test compounds to achieve 50% protection from virus-induced cytopathogenicity (EC50) were determined. Adverse effects of these compounds on the host cells were also assessed by means of the MTT-method; by exposing uninfected cells to various concentrations of test compounds for 48 h at 37 °C, the viability of the cells was detected. The 50% cell cytotoxic concentrations (CC50) of compounds were calculated with the SPSS software (SPSS, Chicago, IL, USA). Selectivity indexes were calculated as the ratio of CC50: EC50.
Cell viability was assessed by an MTT assay, which functions based on the reduction of a MTT into formazan dye by active mitochondria. The cells were treated with 100 µL of MTT (1 mg/mL, Sigma, St. Louis, MO, USA) and incubated at 37 °C for 4 h. The reaction was blocked by DMSO and measured in a microplate reader (Bio-Tek Instruments, Winooski, VT, USA) at 492 nm. The untreated control was arbitrarily set as 100%.

EV71 [1] = experiment: Effect on EV71 adsorption, intracellular virus titration; assay type: cell-based, Enterovirus 71; details: EV71 (10^4 TCID50) treated with 10 µg/mL 4a, 20 µg/mL 4i, 40 µg/mL 4r or 4s, spinoculated onto RD cells, adsorbed 2 h
Method: Mock- or 10 µg/mL 4a, 20 µg/mL 4i, or 40 µg/mL 4r or 4s-treated EV71 (10^4 TCID50) were spinoculated onto cells and adsorbed for 2 h. The infected cells were harvested following freeze–thaw cycles and then subjected to virus titration.
(§1) Figure 2 Analysis of modes of action against EV71 of gramine derivatives. Analysis of effective stage. The RD cells were treated with tested compounds before, simultaneously or after EV71 (100 TCID50) inoculation: antiviral effects were detected by measuring (A) cell viability and (B) progeny virus yields (10 µg/mL 4a, 20 µg/mL 4i, 40 µg/mL 4r and 4s) 48 h post infection; (C) Analysis of the effects on EV71 adsorption. Mock- or 10 µg/mL 4a, 20 µg/mL 4i, 40 µg/mL 4r and 4s-treated EV71 (10^4 TCID50) was spinoculated onto RD cells and adsorbed for 2 h; intracellular virus was subjected to titration using the TCID50 method; (D) Effects on EV71 release from RD cells. RD cells infected with 100 TCID50 of EV71 were incubated with 10 µg/mL 4a, 20 µg/mL 4i, 40 µg/mL 4r and 4s for 12 h, of both cells and supernatants (intra- and extracellular), or of cells or supernatants harvested separately for virus titration. […] Values represent the mean ± standard deviation of three independent experiments.
(§2) The virus suspension, serially diluted 10-fold with DMEM containing 2% FBS, was inoculated to cells in a 96-well plate. After 1 h incubation at 37 °C in 5% CO2, unbinding virus was washed out and MM was added to the cells. After 2 days, the infected cells were monitored for cytopathic effects (CPEs). The virus titer was calculated by the Reed–Muench method.

EV71 [2] = experiment: Time-of-addition assay, progeny virus yield; assay type: cell-based, Enterovirus 71; details: compound present -1-10 h pi (similar for 0–10 h and 2–10 h); 10 µg/mL 4a, 20 µg/mL 4i, 40 µg/mL 4r or 4s; RD cells; 12 h pi
Method: To further understand the mechanisms of these gramine derivatives against EV71 propagation in cells, a time-of-addition experiment was performed. For this experiment, 10 µg/mL 4a, 20 µg/mL 4i, or 40 µg/mL 4r or 4s were added to infected cultures at different time periods (with 2 h intervals) and the reductions in virus yield relative to untreated cultures were determined at 12 h pi. […] With drugs treatments during other periods after EV71 infection, a gradual increase of viral yields was observed, reflecting the loss of the antiviral effects of the compounds. Results from this experiment indicate that these gramine derivatives may exert antiviral effects via the same action mechanism and mainly interfere with the early events of virus replication.
Figure 3 Time-of-addition assay. 10 µg/mL 4a, 20 µg/mL 4i, or 40 µg/mL 4r or 4s were added to RD cells at different time periods after EV71 infection. At 12 h pi, the progeny virus yield was determined (−1–0 h: viral infection period; 0–10 h: period for virus proliferation in the cells). Values are represented as the mean ± standard deviation.
Time-of-addition experiments were carried out, to estimate the point where the compound interfered with the replication cycle of EV71. The RD cells were infected with 100 TCID50 of EV71 and then 10 µg/mL 4a, 20 µg/mL 4i, or 40 µg/mL 4r or 4s was added at different time phases (−1–0 h, 0–10 h, 2–10 h, 4–10 h, 6–10 h, 8–10 h and −1–10 h pi, where −1–0 h is the viral infection period and 0–10 h is the period for virus proliferation in the cells). The cells and supernatants were harvested at […] and subjected to three freeze–thaw cycles, after which the viruses were titered by the Reed-Muench method.

EV71 [3] = experiment: Effect on EV71 release from RD cells; assay type: cell-based, Enterovirus 71; details: 10 µg/mL 4a, 20 µg/mL 4i, 40 µg/mL 4r or 4s after infection, supernatants and cells harvested together or separately at 12 h
Method: as §1
A possible effect of the compounds on viral release from cells was tested. The RD cells were treated with or without 10 µg/mL 4a, 20 µg/mL 4i, or 40 µg/mL 4r or 4s after EV71 infection, and the supernatants and cells were harvested together or separately for analysis of progeny virus yields at 12 h.
as §2

[4] = concentration for 50% protection from virus-induced cytopathogenicity, RD cells, 100 TCID50 EV71, 48 h, MTT

In the case of Cn1cc(C(Nc2nc3ccccc3s2)c2ccccc2F)c2ccccc21 (centres unmarked) [Compound 4r], the EC50 (Enterovirus 71 (EV71); [4]) is reported as 7.3 ± 1.3 µg/mL (≈ 18.8 µM), the “inhibition of virus-induced CPE (morphology)” value (from here on “inhibition … (morphology)”) (Enterovirus 71 (EV71); RD cells) is reported as “nearly complete inhibition of CPE” and the “intracellular virus titer during virus attachment” value (EV71 [1]) is reported as “no significant decrease in virus titer”. The “titers of the progeny virus, time of addition” value (“titers of the progeny virus” below) (EV71 [2]) was “strongly reduced” and the “effect on release of EV71 from cells” value (EV71 [3]) was “no effect on the release of EV71”.

With Cn1cc(C(Nc2ccccn2)c2ccc(F)cc2)c2ccccc21 (centres unmarked) [Compound 4i] the EC50 (Enterovirus 71 (EV71); [4]) was 6.1 ± 3.2 µg/mL (≈ 18.4 µM), the “inhibition … (morphology)” value (Enterovirus 71 (EV71); RD cells) was “nearly complete inhibition of CPE” and the “intracellular virus titer during virus attachment” value (EV71 [1]) was “no significant decrease in virus titer”. The “titers of the progeny virus” value (EV71 [2]) was “strongly reduced” and the “effect on release of EV71 from cells” value (EV71 [3]) was “no effect on the release of EV71”.

With c1ccc(C(Nc2ccccn2)c2c[nH]c3ccccc23)cc1 (centres unmarked) [Compound 4a] the EC50 (Enterovirus 71 (EV71); [4]) was 5.5 ± 2.4 µg/mL (≈ 18.4 µM), the “inhibition … (morphology)” value (Enterovirus 71 (EV71); RD cells) was “nearly complete inhibition of CPE” and the “intracellular virus titer during virus attachment” value (EV71 [1]) was “no significant decrease in virus titer”. For the same compound, the “titers of the progeny virus” value (EV71 [2]) was “strongly reduced” and the “effect on release of EV71 from cells” value (EV71 [3]) was “no effect on the release of EV71”.

For c1ccc(C(Nc2nc3ccccc3s2)c2c[nH]c3ccccc23)nc1 (centres unmarked) [Compound 4s], the EC50 (Enterovirus 71 (EV71); EV71, RD, 48 h) was 9.1 ± 3.1 µg/mL (≈ 25.5 µM), the “inhibition … (morphology)” value (Enterovirus 71 (EV71); RD cells) was “nearly complete inhibition of CPE” and the “intracellular virus titer during virus attachment” value (EV71 [1]) was “no significant decrease in virus titer”. For the same compound, the “titers of the progeny virus” value (EV71 [2]) was “strongly reduced” and the “effect on release of EV71 from cells” value (EV71 [3]) was “no effect on the release of EV71”.
